Measurements published in ChEMBL document CHEMBL1138935, “Lead optimization providing a series of flavone derivatives as potent nonsteroidal inhibitors of the cytochrome P450 aromatase enzyme” (J Med Chem, 2006).

Each compound was assayed against T1, CYP17 (steroid 17-alpha-hydroxylase/17,20 lyase) (Homo sapiens, UniProt P05093) (assay: Inhibition of CYP17 at 2.5 uM).
T1 sequence (P05093 whole entry): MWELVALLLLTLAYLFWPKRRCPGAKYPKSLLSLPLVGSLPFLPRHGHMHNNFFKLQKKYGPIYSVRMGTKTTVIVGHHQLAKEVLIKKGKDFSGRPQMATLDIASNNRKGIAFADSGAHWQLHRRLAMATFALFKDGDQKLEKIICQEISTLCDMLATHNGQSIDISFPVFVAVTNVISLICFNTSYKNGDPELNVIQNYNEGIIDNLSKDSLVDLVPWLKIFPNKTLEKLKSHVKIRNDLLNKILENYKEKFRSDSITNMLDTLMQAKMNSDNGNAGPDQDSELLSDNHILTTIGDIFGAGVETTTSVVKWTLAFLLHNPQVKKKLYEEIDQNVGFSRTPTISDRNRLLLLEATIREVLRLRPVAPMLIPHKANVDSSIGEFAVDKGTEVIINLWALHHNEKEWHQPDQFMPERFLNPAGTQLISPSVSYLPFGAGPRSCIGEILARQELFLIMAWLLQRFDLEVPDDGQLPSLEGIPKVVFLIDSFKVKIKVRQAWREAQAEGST

Row | inhibition at 2.5 µM | SMILES
1 | 29% | COc1ccc2c(=O)c(Cn3ccnc3)c(-c3ccc(Br)cc3)oc2c1
2 | 9% | COc1ccc2c(=O)c(Cn3ccnc3)c(-c3ccc([N+](=O)[O-])cc3)oc2c1
3 | 26% | COc1ccc(-c2oc3ccccc3c(=O)c2Cn2ccnc2)cc1
4 | 12% | COc1ccc2c(=O)c(Cn3ccnc3)c(-c3ccc(C#N)cc3)oc2c1
5 | 27% | O=c1c(Cn2ccnc2)c(-c2ccc(Br)cc2)oc2ccccc12
